# Columns and labels:
# [1] = target: T1, γ-secretase (Homo sapiens, UniProt P49768); experiment: Substrate specificity: β-Alcα secretion by HEK293 cells transfected with FLAG Alcα C150, anti-FLAG immunoprecipitation/western blot; format: cell-based; details: 0.2 μmol/L
# Protocol: (§1) Of families constituting human Alcadein (hereinafter, referred to as Alc) known as a substrate for γ-secretase to colocalize with APP in brain neurons, an artificial Alcα fragment (hereinafter, referred to as Alcα C150) whose first extracellular cleavage site and γ-secretase cleavage site were determined was used to study the substrate specificity of the γ-secretase inhibitor of the present invention. β-Alcα produced from a first cleavage construct of Alcα cannot be quantified by sELISA used in Aβ measurement. Therefore, proteins with an attached FLAG tag at the N termini of first cleavage constructs of Alcα and of C99 were expressed by cells. FLAG-Aβ-like peptides secreted into a medium were collected by immunoprecipitation using anti-FLAG antibodies and detected by western blotting using the antibodies. A specific method thereof is shown below.
# (§2) HEK293 cells (ATCC) (1×10^7 cells/10 cm dish) cultured in 6 ml of 10% FCS-containing DMEM (Wako Pure Chemical Industries, Ltd.) were transfected with FLAG APP C99 pcDNA3.1 (the nucleotide sequence of its coding region is shown in SEQ ID NO: 2) (J. Biol. Chem., 2003, 278, 49448-49458 (which was prepared from pcDNA3-APPC99)) or with FLAG Alcα C150 pcDNA3.1 (the nucleotide sequence of its coding region is shown in SEQ ID NO: 3) (J. Biol. Chem., 2004, 279, 24343-24354 (which was the same as pcDNA3AlcαΔE)) using Lipofectamine 2000 (Invitrogen Corp.) according to the protocol included in the reagent. Each inhibitor and a positive control (γ-Secretase Inhibitor IX (DAPT)) (Calbiochem Contact Information) were separately added at a concentration of 0.2 or 2 μmol/L. The same dose of DMSO (Wako Pure Chemical Industries, Ltd.) thereas was added as a negative control. 24 hours later, the culture supernatants were collected, and samples were preliminarily purified using beads (100 μL of 50% (v/v) Protein-G Sepharose (GE Healthcare)). Then, 15 μL of 50% (v/v) anti-FLAG antibody M2 beads (Sigma-Aldrich Corp.) were added thereto, and the samples were incubated at 4° C. for 1 hour. The beads were collected by centrifugation and washed three times with a buffer (10 mM Tris-HCl [pH 8.0], 140 mM NaCl, 0.1% n-octyl glucoside, 0.025% sodium azide), and Aβ and β-Alcα in the medium were collected. The proteins were subjected to SDS-PAGE using a 15% Tris-Tricine gel (Anal Biochem., 1987, 166 (2), 368-379) and then transferred to a membrane. The membrane was boiled for 5 minutes in PBS. Then, anti-FLAG M2 antibodies (5 μg/ml) (Sigma-Aldrich Corp.) were added thereto, and the membrane was incubated, followed by detection using a western blotting detection reagent ECL (GE Healthcare). This signal was quantified using Versa-doc system (Bio-Rad Laboratories, Inc.) to calculate protein secretion rates (the protein secretion rate of the negative control is defined as 100%).
# [2] = target: T1, γ-secretase; experiment: Substrate specificity: FLAG-Aβ secretion by HEK293 cells transfected with FLAG APP C99, anti-FLAG immunoprecipitation/western blot; format: cell-based; details: 0.2 μmol/L
# Protocol: as §1, §2
smiles,measurement,setting,value
"CSCC[C@H](NC(=O)[C@@H](NC(=O)[C@H](CC(C)C)C[C@@H](O)[C@@H](NC(=O)OC(C)(C)C)[C@@H](C)O)c1ccccc1)C(=O)NCc1ccccc1 [TLVM-11, [5S-(tert-butoxycarbonylamino)-4R,6R-dihydroxy-2R-(2-methylpropyl)heptanoyl]-L-phenylglycyl-L-methionine benzylamide]","γ cleavage of the Alcα-C150, in words",[1],did not inhibit
same,(ii) β-Alcα secretion rate of HEK293 cells,"[1]; 24 h, FLAG Alcα C150, negative control = 100%",68%
same,"(i)/(ii) ratio, Aβ / β-Alcα secretion rates",[2],0.12
same,"cleavage of APP-C99, in words",[2],specifically inhibited
same,(i) Aβ secretion rate of HEK293 cells,"[2]; 24 h, FLAG APP C99, negative control = 100%",8%

# Reference: patent US8501813B2, “γ-secretase inhibitor” (Kabushiki Kaisha Yakult Honsha, priority 2007, dated 2013)
